We go through 14 molecules from patent publication US6316448A, “Pyrazolo[3,4-d][1,2,3] troazines having anticonvulsant activity and process for their preparation” (priority 1999, dated 2001).

Some results are limits rather than exact numbers.

Data set [1] is described as follows: Octanol/water partition coefficient. It counts as physicochemical. The text has this: ^2) Octanol/water partition coefficient, n = not measured
Data set [2] is described as follows: Anticonvulsive action, maximal electroshock (MES), mouse i.p. It counts as in vivo. The text has this:
(§1) ^3) Mouse i.p.: MES = maximal electroshock, PTZ = s.c. pentetrazol
(§2) ^5) in % of the protected animals
On the technique in general: The maximal electroshock test induces tonic seizures with an electrical stimulus.

Data set [3] is described as follows: Anticonvulsive action, s.c. pentetrazol (PTZ), mouse i.p. It is filed as in vivo.
Text: as §1, §2

Data set [4] is described as follows: in vivo. Particulars: rat, po. The text has this:
(§3) Analogous results were obtained for the oral action.

Data set [5] in a line: Maximal electroshock, rat p.o. It counts as in vivo. Particulars: po. On the procedure:
The compounds according to the invention were tested in vivo for their anticonvulsive action (Table 1) in mice (i.p. administration) or rats (p.o. administration) according to the internationally customary standard (Pharmac. Weekblad, Sc. Ed. 14, 132 (1992) and Antiepileptic Drugs, Third. Ed., Raven Press, New York 1989).
as §3

Where [6] appears, read: ip, mouse i.p., s.c. pentetrazol, read-out: Action, % of the protected animals (PTZ).
Where [7] appears, read: ip, mouse i.p., MES, 100 mg/kg, read-out: Action, % of the protected animals (MES).
The mark [8] stands for this setting: ip, mouse i.p., s.c. pentetrazol, 100 mg/kg, read-out: Action, % of the protected animals (PTZ).
[9] abbreviates: ip, mouse i.p., MES, read-out: Action, % of the protected animals (MES).

On to `O=c1[nH]nnc2nn(Cc3ccc(Cl)cc3)cc12` [Compound 8, 6-(4-chlorobenzyl)-3,6-dihydropyrazolo[3,4-d][1,2,3]triazin-4-one], for which the logP in data set [1] amounted to 1.88. In addition, the responders at 300 mg/kg in data set [2] (ip, mouse i.p., MES, 300 mg/kg, read-out: Action, % of the protected animals (MES)) came out at 100%; in data set [3] (setting [6]), 100%.
`O=c1[nH]nnc2nn(Cc3ccccc3)cc12` [Compound 12, 6-benzyl-3,6-dihydropyrazolo[3,4-d][1,2,3]triazin-4-one]: the figures for the responders at 100 mg/kg in data set [2] (setting [7]) and in data set [3] (setting [8]) were 66% and 0%, respectively.
Consider `O=c1[nH]nnc2nn(Cc3ccccc3C(F)(F)F)cc12` [Compound 3, 6-(2-trifluoromethylbenzyl)-3,6-dihydropyrazolo[3,4-d][1,2,3]triazin-4-one], for which the logP in data set [1] was 1.74. The responders at 30 mg/kg in data set [2] (setting [9]) came to 33%. Besides, in data set [3] (setting [8]), the responders at 100 mg/kg came to 100%.
For the molecule `Cc1c2c(=O)[nH]nnc2nn1Cc1ccccc1Cl` [Compound 10, 6-(2-chlorobenzyl)-5-methyl-3,6dihydropyrazolo[3,4-d][1,2,3]triazin-4one], the responders at 100 mg/kg in data set [2] (setting [7]) came out at 66%. For the same molecule, in data set [3] (setting [6]), the responders at 300 mg/kg was found to be 0%.
In data set [1], `O=c1[nH]nnc2nn(Cc3ccc(F)cc3)cc12` [Compound 7, 6-(4-fluorobenzyl)-3,6-dihydropyrazolo[3,4-d][1,2,3]triazin-4-one] had a logP of 1.28. The responders at 100 mg/kg in data set [2] (setting [7]) was 66%. Further, the responders at 300 mg/kg in data set [3] (setting [6]) is 100%.
On the same counts, the results for `O=c1[nH]nnc2nn(Cc3cccc(Cl)c3)cc12` [Compound 5, 6-(3-chlorobenzyl)-3,6-dihydropyrazolo[3,4-d][1,2,3]triazin-4-one] are 1.83, 100% and 0%.
As for `O=c1[nH]nnc2nn(Cc3ccccc3F)cc12` [Compound 1, 6-(2-fluorobenzyl)-3,6-dihydropyrazolo[3,4-d][1,2,3]triazin-4-one], the responders at 30 mg/kg in data set [2] (setting [9]) was found to be 100%. Besides, the responders at 100 mg/kg in data set [3] (setting [8]) amounted to 66%.
For the molecule `CCCC(CCC)C(=O)O` [Valproate, reference compound], the responders at 100 mg/kg in data set [2] (Mus musculus, ip, read-out: Action, % of the protected animals (MES)) was found to be 0%; in data set [3] (Mus musculus, ip, read-out: Action, % of the protected animals (PTZ)), 30%.
Take `NC(=O)N1c2ccccc2C=Cc2ccccc21` [Carbamazepine, reference compound]: the responders at 100 mg/kg was found to be 100% in data set [2] (setting [7]) and 0% in data set [3] (setting [8]).
Regarding “6-(2-chloro-4-fluorobenzyl)-5-methyl-3,6-dihydropyrazolo[3,4-d][1,2,3]triazin-4-one [Compound 11]”, the “Action, % of the protected animals (MES)” value in data set [2] (mouse i.p., MES, 100 mg/kg) came to 66%. The “Action, % of the protected animals (PTZ)” value in data set [3] (mouse i.p., s.c. pentetrazol, 100 mg/kg) is 33%.
For the molecule `O=c1[nH]nnc2nn(Cc3cccc(C(F)(F)F)c3)cc12` [Compound 6, 6-(3-trifluoromethylbenzyl)-3,6-dihydropyrazolo[3,4-d][1,2,3]triazin-4-one], the logP in data set [1] amounted to 2.02. Besides, the responders at 100 mg/kg in data set [2] (setting [7]) came out at 66%; in data set [3] (setting [8]), 20%.
Molecule `O=c1[nH]nnc2nn(Cc3ccccc3Cl)cc12` [Compound 2, 6-(2-chlorobenzyl)-3,6-dihydropyrazolo[3,4-d][1,2,3]triazin-4-one] yielded a TD50 in data set [4] greater than 250 mg/kg. The molecule further had an ED50 in data set [5] of 3 mg/kg. In addition, the lipophilicity (logP) in data set [1] was determined as 0.82. For the same molecule, the responders at 30 mg/kg came out at 100% in data set [2] (setting [9]) and 60% in data set [3] (ip, mouse i.p., s.c. pentetrazol, 30 mg/kg, read-out: Action, % of the protected animals (PTZ)).
As to `Cc1ccccc1Cn1cc2c(=O)[nH]nnc2n1` [Compound 4, 6-(2-methylbenzyl)-3,6-dihydropyrazolo[3,4-d][1,2,3]triazin-4-one], the logP in data set [1] worked out at 0.74. Moreover, the responders at 30 mg/kg in data set [2] (setting [9]) worked out at 100%. Further, the responders at 300 mg/kg in data set [3] (setting [6]) amounted to 100%.
The molecule `O=c1[nH]nnc2nn(Cc3c(F)cccc3Cl)cc12` [Compound 9, 6-(2-chloro-6-fluorobenzyl)-3,6-dihydropyrazolo[3,4-d][1,2,3]triazin-4one] returned a log partition coefficient (logP) in data set [1] of 1.38. In addition, the responders at 10 mg/kg in data set [2] (ip, mouse i.p., MES, 10 mg/kg, read-out: Action, % of the protected animals (MES)) came to 20%. Besides, in data set [3] (setting [8]), the responders at 100 mg/kg turned out to be 100%.

A word on the logP: it is a log measure of how a compound divides between an organic and an aqueous phase. Higher therefore signals a more lipophilic compound. Broadly, the ED50 is the dose at which the effect has come halfway, by size or by number of responders.
